Laboratory results reported in the supplement of paper PMC5579334.

Legend:
[1] = test system: HSC2; assay: relative IC50 (inflection point of fitted dose-response curve, CellTiter-Glo viability, 72 h; top asymptote may be below 50% inhibition); higher = less potent
Method in brief: (§1)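 Viability was scored by CellTiter-Glo ATP luminescence, scaled from vehicle to positive-control wells, with duplicates averaged where present. The cells, MPNST lines and primary human Schwann cells at 750–1000 per well, sat 72 h at 37 °C, 5% CO2, in 384-well plates preprinted with each compound at five concentrations in 10-fold steps. Four-parameter logistic fits were run on the data. These fits give drug sensitivity score and relative IC50 censored at the top concentration, and percent inhibition is reported at the top concentration.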

[2] = test system: HS-PSS; assay: as above
Method in brief: as §1

[3] = test system: HS-Sch-2; assay: as above
Method in brief: as §1

[4] = test system: S462; assay: as above
Method in brief: as §1

[5] = test system: STS26T; assay: as above
Method in brief: as §1

[6] = test system: ST8814; assay: as above
Method in brief: as §1

[7] = test system: HSC1; assay: as above
Method in brief: as §1

[8] = test system: S1507-2; assay: as above
Method in brief: as §1

[9] = test system: YST-1; assay: as above
Method in brief: as §1

[10] = test system: HSC2; assay: relative IC50 (inflection point of fitted dose-response curve, CellTox-Green cytotoxicity, 72 h; top asymptote may be below 50%); higher = less potent
Method in brief: (§2)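 MPNST cell lines and primary human Schwann cells were incubated 72 h at 37 °C in 384-well plates holding five 10-fold compound dilutions. CellTox-Green was added before seeding at a final 1:1000 dilution and reported fluorescence from DNA released by disrupted cells. Signals were scaled to vehicle and positive-control wells, and cultures failing plate quality control were dropped. Drug sensitivity score and relative IC50 come from four-parameter logistic fits, with IC50 censored at the top concentration.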

[11] = test system: STS26T; assay: as above
Method in brief: as §2

[12] = test system: ST8814; assay: as above
Method in brief: as §2

[13] = test system: HSC1; assay: as above
Method in brief: as §2

[14] = test system: S1507-2; assay: as above
Method in brief: as §2

[15] = test system: HS-PSS; assay: as above
Method in brief: as §2

| SMILES | relative IC50 [1] [nM] | relative IC50 [2] [nM] | relative IC50 [3] [nM] | relative IC50 [4] [nM] | relative IC50 [5] [nM] | relative IC50 [6] [nM] | relative IC50 [7] [nM] | relative IC50 [8] [nM] | relative IC50 [9] [nM] | relative IC50 [10] [nM] | relative IC50 [11] [nM] | relative IC50 [12] [nM] | relative IC50 [13] [nM] | relative IC50 [14] [nM] | relative IC50 [15] [nM] |
| --- | --- | --- | --- | --- | --- | --- | --- | --- | --- | --- | --- | --- | --- | --- | --- |
| O=C1NC(=O)[C@@H](c2cn3c4c(cccc24)CCC3)[C@@H]1c1c[nH]c2ccccc12 [Tivantinib] | 251 | 239 | 231 | 340 | 239 | 330 | 276 | 254 | 190 | 243 | 210 | 328 | 240 | 253 | – |
| CCC1=C[C@@H]2CN(C1)Cc1c([nH]c3ccccc13)[C@@](C(=O)OC)(c1cc3c(cc1OC)N(C)[C@H]1[C@@](O)(C(=O)OC)[C@H](OC(C)=O)[C@]4(CC)C=CCN5CC[C@]31[C@@H]54)C2 [Vinorelbine] | 95.7 | 21.4 | 4.21 | 34 | 22.5 | 140 | 153 | 109 | 3 | 647 | 15.3 | 212 | 484 | 129 | – |
| COc1ccc(-c2cc3c(C)nc(N)nc3n([C@H]3CC[C@H](OCCO)CC3)c2=O)cn1 | 270 | 404 | 476 | 196 | 124 | 209 | 197 | 89 | 57.8 | 2710 | 350 | 1520 | 501 | 1630 | – |
| CC(=O)Nc1ccc(C(=O)Nc2ccccc2N)cc1 [Tacedinaline] | > 1000 | > 1000 | > 1000 | > 1000 | > 1000 | > 1000 | > 1000 | > 1000 | > 1000 | > 1000 | > 1000 | > 1000 | > 1000 | > 1000 | – |
| Cn1c(=O)n(-c2ccc(C(C)(C)C#N)cc2)c2c3cc(-c4cnc5ccccc5c4)ccc3ncc21 [Dactolisib] | 8.32 | 15.7 | 12.1 | 14.8 | 7.77 | 15.3 | 8.56 | 11 | 11.9 | > 1000 | > 1000 | > 1000 | > 1000 | > 1000 | – |
| CC(=O)O[C@@]12CO[C@@H]1C[C@H](O)[C@@]1(C)C(=O)[C@H](O)C3=C(C)[C@@H](OC(=O)[C@H](O)[C@@H](NC(=O)OC(C)(C)C)c4ccccc4)C[C@@](O)([C@@H](OC(=O)c4ccccc4)[C@H]21)C3(C)C [Docetaxel] | 4.15 | 3.86 | 2.11 | 0.759 | 1.07 | 3.95 | 3.08 | 8.6 | 1.02 | 8.43 | 1.15 | 4.62 | 6.11 | 6.13 | – |
| C=CCn1c(=O)c2cnc(Nc3ccc(N4CCN(C)CC4)cc3)nc2n1-c1cccc(C(C)(C)O)n1 [MK1775] | 225 | 547 | 84.1 | 111 | 361 | 264 | 224 | 231 | 326 | 1510 | 167 | 375 | 1210 | 196 | – |
| CNC(=O)c1cc(Oc2ccc(NC(=O)Nc3ccc(Cl)c(C(F)(F)F)c3)cc2)ccn1 [Sorafenib] | > 1000 | > 1000 | > 1000 | > 1000 | > 1000 | > 1000 | > 1000 | > 1000 | – | > 1000 | > 1000 | > 1000 | > 1000 | > 1000 | > 1000 |
| Cc1cc(Nc2cc(CN3CCOCC3)c3nc(C)c(Cc4ccc(Cl)cc4F)n3n2)n[nH]1 [Gandotinib] | 1090 | 1000 | 1550 | 862 | 718 | 1730 | 1270 | 1200 | 1170 | 2250 | 1700 | 2770 | 1990 | 2400 | – |
| CC[C@]1(O)C[C@H]2CN(CCc3c([nH]c4ccccc34)[C@@](C(=O)OC)(c3cc4c(cc3OC)N(C=O)[C@H]3[C@@](O)(C(=O)OC)[C@H](OC(C)=O)[C@]5(CC)C=CCN6CC[C@]43[C@@H]65)C2)C1 [Vincristine] | 11 | 9.51 | 2.19 | 3.42 | 1.76 | 6.95 | 10.3 | 6.45 | 2.18 | 44.7 | 1.13 | 6.85 | 62.2 | 8.92 | – |
| CC[C@]1(O)C[C@@H]2CN(CCc3c([nH]c4ccccc34)[C@@](C(=O)OC)(c3cc4c(cc3OC)N(C)[C@H]3[C@@](O)(C(=O)OC)[C@H](OC(C)=O)[C@]5(CC)C=CCN6CC[C@]43[C@@H]65)C2)C1 [Vinblastine] | 5.82 | 10.9 | 2.21 | 3.13 | 2.86 | 2.98 | 6.83 | 5.3 | 3.76 | 13.7 | 2.01 | 2.83 | 31.9 | 4.53 | – |
| COC(=O)C[C@](O)(CCCC(C)(C)O)C(=O)O[C@@H]1C(OC)=C[C@]23CCCN2CCc2cc4c(cc2[C@H]13)OCO4 [Omacetaxine] | 50.8 | 47 | 67.5 | 23.8 | 41.6 | 46.5 | 51.7 | 66.1 | 9.94 | 589 | 130 | 489 | 1090 | 524 | – |
